Assay results reported in PMC7211202 (Investigational New Drugs, 2019).

Assay: Patient incidence of adverse events (CTCAE version 4.0)
Format: in vivo
Conditions: dose escalation
Excerpt: Each patient was monitored for 21 days for the occurrence of dose-limiting toxicities (DLTs), defined as febrile neutropenia, neutropenic infection, grade 4 neutropenia lasting >7 days, grade ≥ 3 thrombocytopenia lasting >7 days (solid tumors only), grade 3 thrombocytopenia with grade ≥ 2 bleeding (solid tumors only), grade 3 or 4 thrombocytopenia with grade > 1 bleeding (multiple myeloma only), grade 4 thrombocytopenia (solid tumors only), or grade 4 thrombocytopenia lasting >14 days (multiple myeloma only), or as grade ≥ 3 nausea, vomiting, or diarrhea after support; grade 3 fatigue lasting >7 days; any other grade ≥ 3 adverse event (AE); grade ≥ 3 kidney injury (multiple myeloma only), or treatment-related AEs not returning to grade ≤ 1 (solid tumors only) per Common Terminology Criteria for Adverse Events (CTCAE), version 4.0. The MTD was defined as the maximum dose, at which the probability of a DLT was ≤25% in Part 1A and ≤ 33% in Parts 1B and 1C. Treatment continued until disease progression, intolerable toxicity, or withdrawal of consent.
AEs were recorded for all enrolled patients.

CC(C)[C@@H](CS(=O)(=O)C(C)C)N1C(=O)[C@@](C)(CC(=O)O)C[C@H](c2cccc(Cl)c2)[C@H]1c1ccc(Cl)cc1 [AMG 232]
3 (43) n (%): Patients with any treatment-emergent serious AE (120 mg (n = 7)) | Treatment-related AE: Diarrhea (120 mg (n = 7)) | Treatment-related AE: Fatigue (120 mg (n = 7)) | Treatment-related AE: Nausea (120 mg (n = 7))
8 (100) n (%): Patients with any treatment-emergent AE (240 mg (n = 8)) | Patients with any treatment-related AE (240 mg (n = 8))
5 (63) n (%): Treatment-related AE: Nausea (240 mg (n = 8)) | Treatment-related AE: Vomiting (240 mg (n = 8))
2 (50) n (%): Patients with any treatment-emergent serious AE (300 mg (n = 4)) | Patients with any treatment-related AE, Grade 4 (300 mg (n = 4)) | Patients with any treatment-related serious AE (300 mg (n = 4)) | Treatment-related AE: Fatigue (300 mg (n = 4)) | Treatment-related AE: Neutropenia (300 mg (n = 4))
4 (100) n (%): Patients with any treatment-emergent AE (60 mg (n = 4)) | Patients with any treatment-emergent AE (300 mg (n = 4)) | Patients with any treatment-related AE (300 mg (n = 4)) | Treatment-related AE: Diarrhea (300 mg (n = 4))
1 (14) n (%): Patients with any treatment-related AE, Grade 3 (120 mg (n = 7)) | Patients with any treatment-related AE, Grade 4 (120 mg (n = 7)) | Treatment-related AE: Myalgia (120 mg (n = 7)) | Treatment-related AE: Thrombocytopenia (120 mg (n = 7)) | Treatment-related AE: Upper abdominal pain (120 mg (n = 7))
1 (25) n (%): Treatment-related AE: Decrease appetite (60 mg (n = 4)) | Treatment-related AE: Diarrhea (60 mg (n = 4)) | Treatment-related AE: Fatigue (60 mg (n = 4)) | Treatment-related AE: Abdominal pain (300 mg (n = 4)) | Treatment-related AE: Asthenia (300 mg (n = 4)) | Treatment-related AE: Decrease appetite (300 mg (n = 4)) | Treatment-related AE: Dysgeusia (300 mg (n = 4)) | Treatment-related AE: Nausea (300 mg (n = 4))
1 (13) n (%): Treatment-related AE: Anemia (240 mg (n = 8)) | Treatment-related AE: Asthenia (240 mg (n = 8)) | Treatment-related AE: Thrombocytopenia (240 mg (n = 8)) | Treatment-related AE: Upper abdominal pain (240 mg (n = 8)) | Treatment-related serious AE: Abdominal pain (grade 2) (240 mg (n = 8)) | Treatment-related serious AE: Diarrhea (240 mg (n = 8)) | Treatment-related serious AE: Diarrhea, Grade 2 (240 mg (n = 8)) | Treatment-related serious AE: Nausea (grade 3) (240 mg (n = 8)) | Treatment-related serious AE: Non-cardiac chest pain (grade 3) (240 mg (n = 8)) | Treatment-related serious AE: Vomiting (240 mg (n = 8)) | Treatment-related serious AE: Vomiting, Grade 3 (240 mg (n = 8))
0 n (%): Treatment-related serious AE: Dehydration (grade 2) (30 mg (n = 3)) | Treatment-related serious AE: Diarrhea (30 mg (n = 3)) | Treatment-related serious AE: Diarrhea, Grade 2 (30 mg (n = 3)) | Treatment-related serious AE: Diarrhea, Grade 3 (30 mg (n = 3)) | Treatment-related serious AE: Febrile neutropenia (grade 3) (30 mg (n = 3)) | Treatment-related serious AE: Hematemesis (grade 3) (30 mg (n = 3)) | Treatment-related serious AE: Nausea (grade 3) (30 mg (n = 3)) | Treatment-related serious AE: Neutropenia (grade 4) (30 mg (n = 3)) | Treatment-related serious AE: Non-cardiac chest pain (grade 3) (30 mg (n = 3)) | Treatment-related serious AE: Thrombocytopenia (grade 4) (30 mg (n = 3)) | Treatment-related serious AE: Vomiting (30 mg (n = 3)) | Treatment-related serious AE: Vomiting, Grade 2 (30 mg (n = 3)) | Treatment-related serious AE: Vomiting, Grade 3 (30 mg (n = 3)) | Patients with any treatment-emergent serious AE (60 mg (n = 4)) | Patients with any treatment-related AE, Grade 3 (60 mg (n = 4)) | Patients with any treatment-related AE, Grade 4 (60 mg (n = 4)) | Patients with any treatment-related AE, Grade 5 (60 mg (n = 4)) | Patients with any treatment-related serious AE (60 mg (n = 4)) | Treatment-related AE: Abdominal pain (60 mg (n = 4)) | Treatment-related AE: Anemia (60 mg (n = 4)) | Treatment-related AE: Asthenia (60 mg (n = 4)) | Treatment-related AE: Dysgeusia (60 mg (n = 4)) | Treatment-related AE: Myalgia (60 mg (n = 4)) | Treatment-related AE: Neutropenia (60 mg (n = 4)) | Treatment-related AE: Thrombocytopenia (60 mg (n = 4)) | Treatment-related AE: Upper abdominal pain (60 mg (n = 4)) | Treatment-related AE: Vomiting (60 mg (n = 4)) | Treatment-related serious AE: Abdominal pain (grade 2) (60 mg (n = 4)) | Treatment-related serious AE: Dehydration (grade 2) (60 mg (n = 4)) | Treatment-related serious AE: Diarrhea (60 mg (n = 4)) | Treatment-related serious AE: Diarrhea, Grade 2 (60 mg (n = 4)) | Treatment-related serious AE: Diarrhea, Grade 3 (60 mg (n = 4)) | Treatment-related serious AE: Febrile neutropenia (grade 3) (60 mg (n = 4)) | Treatment-related serious AE: Hematemesis (grade 3) (60 mg (n = 4)) | Treatment-related serious AE: Nausea (grade 3) (60 mg (n = 4)) | Treatment-related serious AE: Neutropenia (grade 4) (60 mg (n = 4)) | Treatment-related serious AE: Non-cardiac chest pain (grade 3) (60 mg (n = 4)) | Treatment-related serious AE: Thrombocytopenia (grade 4) (60 mg (n = 4)) | Treatment-related serious AE: Vomiting (60 mg (n = 4)) | Treatment-related serious AE: Vomiting, Grade 2 (60 mg (n = 4)) | Treatment-related serious AE: Vomiting, Grade 3 (60 mg (n = 4)) | Patients with any treatment-related AE, Grade 5 (120 mg (n = 7)) | Patients with any treatment-related serious AE (120 mg (n = 7)) | Treatment-related AE: Abdominal pain (120 mg (n = 7)) | Treatment-related AE: Anemia (120 mg (n = 7)) | Treatment-related AE: Asthenia (120 mg (n = 7)) | Treatment-related AE: Dysgeusia (120 mg (n = 7)) | Treatment-related AE: Neutropenia (120 mg (n = 7)) | Treatment-related serious AE: Abdominal pain (grade 2) (120 mg (n = 7)) | Treatment-related serious AE: Dehydration (grade 2) (120 mg (n = 7)) | Treatment-related serious AE: Diarrhea (120 mg (n = 7)) | Treatment-related serious AE: Diarrhea, Grade 2 (120 mg (n = 7)) | Treatment-related serious AE: Diarrhea, Grade 3 (120 mg (n = 7)) | Treatment-related serious AE: Febrile neutropenia (grade 3) (120 mg (n = 7)) | Treatment-related serious AE: Hematemesis (grade 3) (120 mg (n = 7)) | Treatment-related serious AE: Nausea (grade 3) (120 mg (n = 7)) | Treatment-related serious AE: Neutropenia (grade 4) (120 mg (n = 7)) | Treatment-related serious AE: Non-cardiac chest pain (grade 3) (120 mg (n = 7)) | Treatment-related serious AE: Thrombocytopenia (grade 4) (120 mg (n = 7)) | Treatment-related serious AE: Vomiting (120 mg (n = 7)) | Treatment-related serious AE: Vomiting, Grade 2 (120 mg (n = 7)) | Treatment-related serious AE: Vomiting, Grade 3 (120 mg (n = 7)) | Patients with any treatment-related AE, Grade 4 (240 mg (n = 8)) | Patients with any treatment-related AE, Grade 5 (240 mg (n = 8)) | Treatment-related AE: Myalgia (240 mg (n = 8)) | Treatment-related AE: Neutropenia (240 mg (n = 8)) | Treatment-related serious AE: Dehydration (grade 2) (240 mg (n = 8)) | Treatment-related serious AE: Diarrhea, Grade 3 (240 mg (n = 8)) | Treatment-related serious AE: Febrile neutropenia (grade 3) (240 mg (n = 8)) | Treatment-related serious AE: Hematemesis (grade 3) (240 mg (n = 8)) | Treatment-related serious AE: Neutropenia (grade 4) (240 mg (n = 8)) | Treatment-related serious AE: Thrombocytopenia (grade 4) (240 mg (n = 8)) | Treatment-related serious AE: Vomiting, Grade 2 (240 mg (n = 8)) | Patients with any treatment-related AE, Grade 5 (300 mg (n = 4)) | Treatment-related AE: Anemia (300 mg (n = 4)) | Treatment-related AE: Myalgia (300 mg (n = 4))
4 (50) n (%): Patients with any treatment-emergent serious AE (240 mg (n = 8)) | Treatment-related AE: Fatigue (240 mg (n = 8))
3 (38) n (%): Patients with any treatment-related AE, Grade 3 (240 mg (n = 8))
2 (25) n (%): Patients with any treatment-related serious AE (240 mg (n = 8)) | Treatment-related AE: Abdominal pain (240 mg (n = 8)) | Treatment-related AE: Decrease appetite (240 mg (n = 8)) | Treatment-related AE: Dysgeusia (240 mg (n = 8))
3 (75) n (%): Patients with any treatment-related AE (60 mg (n = 4)) | Treatment-related AE: Nausea (60 mg (n = 4)) | Patients with any treatment-related AE, Grade 3 (300 mg (n = 4)) | Treatment-related AE: Thrombocytopenia (300 mg (n = 4))
6 (75) n (%): Treatment-related AE: Diarrhea (240 mg (n = 8))
2 (29) n (%): Treatment-related AE: Decrease appetite (120 mg (n = 7)) | Treatment-related AE: Vomiting (120 mg (n = 7))
7 (100) n (%): Patients with any treatment-emergent AE (120 mg (n = 7)) | Patients with any treatment-related AE (120 mg (n = 7))
